The values that follow come from patent US12275731B2, “Azaindole inhibitors of wild-type and mutant forms of LRRK2” (DANA-FARBER CANCER INSTITUTE, INC., priority 2018, dated 2025).

What all share (test): KinomeScan profiling
What all share (format): binding

Assay [1] addresses VPS34 (Homo sapiens, UniProt Q8NEB9). The settings on record: VPS34, 1 μM; read-out: % control. Summed up:
(§1)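 Test agents were profiled at a single concentration of 1 μM (DMSO vehicle) on a near-complete set of 468 kinases. Signal is reported relative to vehicle (100%) and a fully displacing control (0%).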

The target of assay [2] is T1, NEK3 (Homo sapiens, UniProt P51956).
T1 sequence (P51956 1-506): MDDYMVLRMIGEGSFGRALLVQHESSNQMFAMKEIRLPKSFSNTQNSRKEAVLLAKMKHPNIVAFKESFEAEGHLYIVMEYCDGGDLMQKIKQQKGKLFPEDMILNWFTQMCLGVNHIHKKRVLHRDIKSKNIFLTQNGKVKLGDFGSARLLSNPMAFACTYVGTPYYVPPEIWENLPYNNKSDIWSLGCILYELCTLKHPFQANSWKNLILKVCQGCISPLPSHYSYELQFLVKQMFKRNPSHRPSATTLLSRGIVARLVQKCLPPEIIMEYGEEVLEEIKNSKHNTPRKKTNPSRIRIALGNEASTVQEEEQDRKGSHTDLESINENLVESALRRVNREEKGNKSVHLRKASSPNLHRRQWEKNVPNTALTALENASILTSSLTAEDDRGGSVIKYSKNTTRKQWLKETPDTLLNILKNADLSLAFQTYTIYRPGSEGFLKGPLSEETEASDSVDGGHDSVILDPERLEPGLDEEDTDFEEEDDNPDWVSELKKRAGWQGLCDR
The settings on record: NEK3, 1 μM; read-out: % control. The procedure, abridged:
as §1

Assay [3] addresses T2, TYK2(JH2domain-pseudokinase) (Homo sapiens, UniProt P29597).
T2 construct: TYK2(JH2domain-pseudokinase)
As to conditions: read-out: % control. The procedure, abridged: as §1

In assay [4] the target is CDK4-cyclinD3 (Homo sapiens, UniProt P11802). As to conditions: CDK4-cyclinD3, 1 μM; read-out: % control. The procedure, abridged:
as §1

For assay [5], the target named is ERK5 (Homo sapiens, UniProt Q13164). As to conditions: ERK5, 1 μM; read-out: % control. Summed up: as §1
Assay [6] concerns the target NEK4 (Homo sapiens, UniProt P51957). The settings on record: NEK4, 1 μM; read-out: % control. The procedure, abridged:
as §1

For assay [7], the target named is CAMK1B (Homo sapiens, UniProt Q6P2M8). As to conditions: read-out: % control. Summed up: as §1
Assay [8] deals with T3, SRC (Homo sapiens, UniProt P12931).
T3 construct: purchased KinomeScan® (panel service)
The settings on record: read-out: % control. The procedure, abridged:
as §1

Assay [9] has as its target T4, NEK9 (Homo sapiens, UniProt Q8TD19).
T4 sequence (Q8TD19 1-979): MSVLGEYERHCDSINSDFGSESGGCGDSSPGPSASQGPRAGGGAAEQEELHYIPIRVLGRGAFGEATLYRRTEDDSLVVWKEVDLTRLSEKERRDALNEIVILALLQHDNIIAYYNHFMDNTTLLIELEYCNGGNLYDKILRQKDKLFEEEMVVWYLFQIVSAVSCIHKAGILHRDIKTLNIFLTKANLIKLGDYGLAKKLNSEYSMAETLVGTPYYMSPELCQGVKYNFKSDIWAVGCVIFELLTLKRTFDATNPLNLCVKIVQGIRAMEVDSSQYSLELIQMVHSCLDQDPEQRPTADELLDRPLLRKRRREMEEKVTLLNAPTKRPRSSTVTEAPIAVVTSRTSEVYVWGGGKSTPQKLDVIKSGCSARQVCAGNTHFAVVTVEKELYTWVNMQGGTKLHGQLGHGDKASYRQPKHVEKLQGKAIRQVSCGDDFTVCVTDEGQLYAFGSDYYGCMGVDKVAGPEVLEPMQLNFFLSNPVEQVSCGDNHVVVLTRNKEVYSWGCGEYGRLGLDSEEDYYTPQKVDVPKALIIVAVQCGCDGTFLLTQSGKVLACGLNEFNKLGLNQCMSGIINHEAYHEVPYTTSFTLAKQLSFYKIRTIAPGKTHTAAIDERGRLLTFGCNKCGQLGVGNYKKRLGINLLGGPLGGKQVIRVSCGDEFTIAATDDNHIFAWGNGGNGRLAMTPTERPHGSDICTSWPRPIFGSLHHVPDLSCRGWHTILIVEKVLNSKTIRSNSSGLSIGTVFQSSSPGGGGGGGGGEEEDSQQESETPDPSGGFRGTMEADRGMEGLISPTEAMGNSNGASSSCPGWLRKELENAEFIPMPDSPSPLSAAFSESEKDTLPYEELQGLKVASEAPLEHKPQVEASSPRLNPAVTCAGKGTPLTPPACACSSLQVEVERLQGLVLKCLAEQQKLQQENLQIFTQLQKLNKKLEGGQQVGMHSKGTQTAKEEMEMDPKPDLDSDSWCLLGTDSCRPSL
The settings on record: NEK9, 1 μM; read-out: % control. Summed up: as §1

Assay [10] addresses WEE2 (Homo sapiens, UniProt P0C1S8). As to conditions: WEE2, 1 μM; read-out: % control. The procedure, abridged: as §1
Assay [11] concerns the target RET(V804L) (Homo sapiens, UniProt P07949, V804L). As to conditions: read-out: % control. The procedure, abridged: as §1

CDK4-cyclinD3, sequence (P11802 whole entry): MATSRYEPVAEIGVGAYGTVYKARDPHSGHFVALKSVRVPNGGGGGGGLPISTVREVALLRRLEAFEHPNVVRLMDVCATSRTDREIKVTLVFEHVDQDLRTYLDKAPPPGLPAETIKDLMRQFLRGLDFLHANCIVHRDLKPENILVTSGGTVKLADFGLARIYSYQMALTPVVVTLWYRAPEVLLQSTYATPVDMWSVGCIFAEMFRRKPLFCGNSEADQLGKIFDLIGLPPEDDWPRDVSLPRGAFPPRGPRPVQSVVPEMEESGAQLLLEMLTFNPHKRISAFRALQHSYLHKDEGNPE
CDK4-cyclinD3, sequence (P30281 whole entry partner): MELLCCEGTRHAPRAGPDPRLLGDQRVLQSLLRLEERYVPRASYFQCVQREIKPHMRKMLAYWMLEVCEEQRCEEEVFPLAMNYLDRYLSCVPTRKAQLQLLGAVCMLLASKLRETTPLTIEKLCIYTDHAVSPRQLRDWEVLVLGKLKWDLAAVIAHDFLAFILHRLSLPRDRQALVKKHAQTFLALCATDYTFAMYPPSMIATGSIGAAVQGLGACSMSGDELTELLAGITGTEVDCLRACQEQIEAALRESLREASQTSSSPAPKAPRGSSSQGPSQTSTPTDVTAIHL
T2 sequence (P29597 589-875 limits assumed): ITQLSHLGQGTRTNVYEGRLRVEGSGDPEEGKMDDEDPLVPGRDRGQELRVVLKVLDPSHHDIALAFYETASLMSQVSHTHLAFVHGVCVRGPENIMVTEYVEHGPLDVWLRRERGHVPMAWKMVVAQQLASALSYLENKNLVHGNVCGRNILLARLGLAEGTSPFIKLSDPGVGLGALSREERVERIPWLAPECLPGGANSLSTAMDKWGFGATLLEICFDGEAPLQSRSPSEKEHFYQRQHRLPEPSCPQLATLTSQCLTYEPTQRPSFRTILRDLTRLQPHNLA
WEE2, sequence (P0C1S8 whole entry): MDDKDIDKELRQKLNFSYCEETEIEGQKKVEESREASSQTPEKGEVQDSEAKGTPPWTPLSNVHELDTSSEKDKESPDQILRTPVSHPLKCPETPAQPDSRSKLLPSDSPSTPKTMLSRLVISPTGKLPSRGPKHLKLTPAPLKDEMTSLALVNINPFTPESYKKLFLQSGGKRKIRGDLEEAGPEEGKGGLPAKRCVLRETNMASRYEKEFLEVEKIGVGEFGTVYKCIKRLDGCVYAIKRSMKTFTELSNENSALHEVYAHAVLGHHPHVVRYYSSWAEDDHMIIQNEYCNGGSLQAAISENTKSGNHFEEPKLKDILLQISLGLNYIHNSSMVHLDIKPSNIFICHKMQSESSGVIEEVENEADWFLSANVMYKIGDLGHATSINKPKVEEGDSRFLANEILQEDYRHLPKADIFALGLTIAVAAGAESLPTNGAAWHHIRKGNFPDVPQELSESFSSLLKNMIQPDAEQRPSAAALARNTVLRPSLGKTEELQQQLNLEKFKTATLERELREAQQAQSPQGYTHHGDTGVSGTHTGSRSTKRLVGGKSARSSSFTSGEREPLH
NEK4, sequence (P51957 whole entry): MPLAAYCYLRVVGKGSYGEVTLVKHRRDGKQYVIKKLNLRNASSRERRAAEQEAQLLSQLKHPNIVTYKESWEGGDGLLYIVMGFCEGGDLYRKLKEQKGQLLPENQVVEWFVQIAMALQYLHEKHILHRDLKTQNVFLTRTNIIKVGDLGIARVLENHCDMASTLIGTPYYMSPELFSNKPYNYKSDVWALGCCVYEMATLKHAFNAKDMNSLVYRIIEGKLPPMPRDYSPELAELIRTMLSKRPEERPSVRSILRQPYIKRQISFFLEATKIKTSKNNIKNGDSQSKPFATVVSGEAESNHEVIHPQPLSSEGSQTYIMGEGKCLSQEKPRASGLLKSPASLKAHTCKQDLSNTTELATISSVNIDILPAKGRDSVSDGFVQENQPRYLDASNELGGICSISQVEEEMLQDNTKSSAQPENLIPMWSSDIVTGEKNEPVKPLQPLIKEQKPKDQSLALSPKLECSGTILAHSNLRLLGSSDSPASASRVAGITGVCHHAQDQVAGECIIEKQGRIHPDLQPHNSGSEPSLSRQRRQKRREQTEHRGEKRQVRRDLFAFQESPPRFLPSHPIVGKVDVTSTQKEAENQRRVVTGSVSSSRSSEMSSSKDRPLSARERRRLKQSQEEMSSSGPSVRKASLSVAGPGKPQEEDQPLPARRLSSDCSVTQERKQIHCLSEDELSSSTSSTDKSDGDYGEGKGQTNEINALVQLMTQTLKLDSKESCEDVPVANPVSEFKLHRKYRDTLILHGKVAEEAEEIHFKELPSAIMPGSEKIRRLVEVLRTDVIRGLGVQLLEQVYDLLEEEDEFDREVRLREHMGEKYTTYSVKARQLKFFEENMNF
ERK5, sequence (Q13164 whole entry): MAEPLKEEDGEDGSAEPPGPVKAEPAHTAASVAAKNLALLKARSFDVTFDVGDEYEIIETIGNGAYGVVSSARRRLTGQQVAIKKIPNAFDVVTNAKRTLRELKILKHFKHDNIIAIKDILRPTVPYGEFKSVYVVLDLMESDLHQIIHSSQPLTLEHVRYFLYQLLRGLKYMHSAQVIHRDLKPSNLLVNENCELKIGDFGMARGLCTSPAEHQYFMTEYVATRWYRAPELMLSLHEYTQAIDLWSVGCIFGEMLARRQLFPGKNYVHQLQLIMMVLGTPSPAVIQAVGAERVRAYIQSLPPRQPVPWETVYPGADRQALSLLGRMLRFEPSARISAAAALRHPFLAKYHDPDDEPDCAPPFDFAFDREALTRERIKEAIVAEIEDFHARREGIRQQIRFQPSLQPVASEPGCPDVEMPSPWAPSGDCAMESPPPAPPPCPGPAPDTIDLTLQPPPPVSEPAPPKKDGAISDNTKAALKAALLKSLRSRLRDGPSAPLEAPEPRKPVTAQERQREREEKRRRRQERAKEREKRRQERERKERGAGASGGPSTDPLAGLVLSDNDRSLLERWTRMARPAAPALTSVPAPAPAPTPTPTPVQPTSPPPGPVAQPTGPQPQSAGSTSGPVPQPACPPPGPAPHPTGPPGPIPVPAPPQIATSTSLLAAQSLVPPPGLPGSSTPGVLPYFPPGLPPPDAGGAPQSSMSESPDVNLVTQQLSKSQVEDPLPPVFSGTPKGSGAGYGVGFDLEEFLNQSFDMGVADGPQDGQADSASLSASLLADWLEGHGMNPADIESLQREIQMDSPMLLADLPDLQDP
T3 sequence (P12931 whole entry): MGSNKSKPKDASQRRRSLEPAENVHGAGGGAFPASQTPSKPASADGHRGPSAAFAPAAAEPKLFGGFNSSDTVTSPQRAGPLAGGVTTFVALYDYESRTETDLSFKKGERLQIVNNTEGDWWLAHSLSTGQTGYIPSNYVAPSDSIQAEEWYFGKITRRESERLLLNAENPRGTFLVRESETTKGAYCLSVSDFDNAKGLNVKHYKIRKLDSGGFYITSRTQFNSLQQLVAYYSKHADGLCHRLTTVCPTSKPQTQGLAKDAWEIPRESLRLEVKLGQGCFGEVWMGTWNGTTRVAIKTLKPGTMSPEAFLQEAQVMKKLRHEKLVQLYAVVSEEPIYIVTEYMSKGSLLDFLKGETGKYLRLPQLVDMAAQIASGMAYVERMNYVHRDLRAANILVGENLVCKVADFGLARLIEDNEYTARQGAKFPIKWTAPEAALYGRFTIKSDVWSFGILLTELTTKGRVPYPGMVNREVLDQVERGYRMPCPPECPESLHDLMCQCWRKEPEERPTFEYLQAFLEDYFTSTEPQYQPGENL
CAMK1B, sequence (Q6P2M8 whole entry): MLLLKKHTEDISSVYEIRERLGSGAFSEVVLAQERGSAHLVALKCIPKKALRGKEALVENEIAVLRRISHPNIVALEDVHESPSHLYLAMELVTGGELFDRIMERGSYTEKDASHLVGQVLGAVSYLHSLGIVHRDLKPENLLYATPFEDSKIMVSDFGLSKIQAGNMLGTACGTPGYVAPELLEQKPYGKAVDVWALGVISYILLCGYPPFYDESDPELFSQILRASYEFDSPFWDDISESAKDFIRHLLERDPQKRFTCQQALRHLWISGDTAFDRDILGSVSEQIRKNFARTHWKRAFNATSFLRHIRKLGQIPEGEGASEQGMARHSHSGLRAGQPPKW
VPS34, sequence (Q8NEB9 whole entry): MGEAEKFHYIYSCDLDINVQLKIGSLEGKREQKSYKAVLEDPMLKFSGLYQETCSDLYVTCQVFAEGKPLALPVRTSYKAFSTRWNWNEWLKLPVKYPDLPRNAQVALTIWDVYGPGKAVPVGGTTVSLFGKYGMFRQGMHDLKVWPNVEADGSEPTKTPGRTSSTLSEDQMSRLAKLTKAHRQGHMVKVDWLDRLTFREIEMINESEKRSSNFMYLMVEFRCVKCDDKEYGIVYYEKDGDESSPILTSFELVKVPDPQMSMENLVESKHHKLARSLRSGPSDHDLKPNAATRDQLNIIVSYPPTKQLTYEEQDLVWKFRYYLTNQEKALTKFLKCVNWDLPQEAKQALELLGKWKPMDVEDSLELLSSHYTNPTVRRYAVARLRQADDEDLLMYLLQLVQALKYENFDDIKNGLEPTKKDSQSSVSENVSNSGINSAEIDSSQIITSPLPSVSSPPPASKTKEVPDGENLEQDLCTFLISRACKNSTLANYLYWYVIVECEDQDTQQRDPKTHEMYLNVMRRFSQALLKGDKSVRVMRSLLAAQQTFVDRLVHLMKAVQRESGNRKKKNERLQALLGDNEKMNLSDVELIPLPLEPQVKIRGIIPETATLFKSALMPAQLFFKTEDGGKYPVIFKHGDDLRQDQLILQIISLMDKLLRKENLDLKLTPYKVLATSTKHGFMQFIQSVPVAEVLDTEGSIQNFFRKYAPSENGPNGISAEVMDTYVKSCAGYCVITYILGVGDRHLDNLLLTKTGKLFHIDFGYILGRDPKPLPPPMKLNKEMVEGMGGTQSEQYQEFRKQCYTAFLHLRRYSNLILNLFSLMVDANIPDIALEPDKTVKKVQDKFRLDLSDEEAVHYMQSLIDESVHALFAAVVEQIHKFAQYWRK

For `CNc1c(-c2ccc(C(=O)N3CCC(N4CCOCC4)CC3)cc2)cnc2[nH]cc(Cl)c12` [Compound 96, (4-(3-chloro-4-(methylamino)-1H-pyrrolo[2,3-b]pyridin-5-yl)phenyl)(4-morpholinopiperidin-1-yl)methanone], the remaining binding at 1 µM in [1] came to 51%; in assay [2], 82%; in assay [3], 89%; in assay [4] it was 100%; in [5] it was 81%; in [6], 65%. In addition, the remaining binding at 1 µM was 87% in assay [7]; 100% in [8]; 100% in [9]; 100% in assay [10]; 59% in [11].
In the case of `O=C(c1ccc(-c2cnc3[nH]cc(Cl)c3c2NC2CCCC2)cc1)N1CCC(N2CCOCC2)CC1` [Compound 101, (4-(3-chloro-4-(cyclopentylamino)-1H-pyrrolo[2,3-b]pyridin-5-yl)phenyl)(4-morpholinopiperidin-1-yl)methanone], the remaining binding at 1 µM came out at 100% in assay [1]; 95% in assay [2]; 100% in [3]; 99% in assay [4]; 100% in [5]; 100% in assay [6]. Further, the remaining binding at 1 µM in assay [7] came out at 69%; in assay [8] it was 100%; in [9], 98%; in assay [10] it was 94%; in [11], 97%.
As to `CNc1c(-c2cnn([C@H]3CCN(C(C)=O)C[C@@H]3F)c2)cnc2[nH]cc(Cl)c12` [Compound 77, 1-((3S,4S)-4-(4-(3-chloro-4-(methylamino)-1H-pyrrolo[2,3-b]pyridin-5-yl)-1H-pyrazol-1-yl)-3-fluoropiperidin-1-yl)ethan-1-one], the remaining binding at 1 µM in assay [1] turned out to be 35%; in assay [2], 68%; in assay [3], 84%; in assay [4], 98%; in assay [5], 100%; in assay [6], 82%. For the same compound, the remaining binding at 1 µM in assay [7] was found to be 74%; in assay [8] it was 99%; in assay [9], 100%; in assay [10], 95%; in [11] it was 45%.
